Legend:
zfT1R2a/zfT1R3 [1] = target: T1, zfT1R2a/zfT1R3 (Danio rerio, UniProt A0A8M1N8F9+Q2MHK9); assay: Effect of anions, cations and osmotic pressure on cellular responses, cells in 10 mM Cl- buffer, zfT1R2a/zfT1R3; assay type: cell-based, zebrafish; settings: for response to fixed concentration of L-Pro on coapplication: coapplied with 160 µM L-Pro, final [Cl-]o up to 60 mM
T1 sequence (A0A8M1N8F9 26-825): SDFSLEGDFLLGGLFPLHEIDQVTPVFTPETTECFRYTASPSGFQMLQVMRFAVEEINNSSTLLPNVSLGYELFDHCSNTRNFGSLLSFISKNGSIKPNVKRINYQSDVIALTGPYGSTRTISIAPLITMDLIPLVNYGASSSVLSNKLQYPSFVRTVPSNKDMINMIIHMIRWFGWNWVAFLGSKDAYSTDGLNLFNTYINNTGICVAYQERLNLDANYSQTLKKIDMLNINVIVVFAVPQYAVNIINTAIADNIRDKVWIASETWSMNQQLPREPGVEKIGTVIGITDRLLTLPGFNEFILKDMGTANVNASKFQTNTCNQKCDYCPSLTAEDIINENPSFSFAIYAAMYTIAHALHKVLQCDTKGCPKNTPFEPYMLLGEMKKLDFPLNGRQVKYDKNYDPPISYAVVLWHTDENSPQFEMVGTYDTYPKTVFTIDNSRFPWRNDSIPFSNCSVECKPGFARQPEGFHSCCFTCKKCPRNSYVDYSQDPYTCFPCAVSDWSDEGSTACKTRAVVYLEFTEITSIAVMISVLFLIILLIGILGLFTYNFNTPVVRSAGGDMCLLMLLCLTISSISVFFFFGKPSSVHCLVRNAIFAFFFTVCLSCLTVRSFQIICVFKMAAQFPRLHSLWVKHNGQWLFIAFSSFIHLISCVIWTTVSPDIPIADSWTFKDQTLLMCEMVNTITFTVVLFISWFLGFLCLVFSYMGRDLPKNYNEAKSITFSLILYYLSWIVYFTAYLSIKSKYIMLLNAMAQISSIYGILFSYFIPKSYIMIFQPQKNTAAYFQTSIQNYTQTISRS
T1 sequence (Q2MHK9 25-850): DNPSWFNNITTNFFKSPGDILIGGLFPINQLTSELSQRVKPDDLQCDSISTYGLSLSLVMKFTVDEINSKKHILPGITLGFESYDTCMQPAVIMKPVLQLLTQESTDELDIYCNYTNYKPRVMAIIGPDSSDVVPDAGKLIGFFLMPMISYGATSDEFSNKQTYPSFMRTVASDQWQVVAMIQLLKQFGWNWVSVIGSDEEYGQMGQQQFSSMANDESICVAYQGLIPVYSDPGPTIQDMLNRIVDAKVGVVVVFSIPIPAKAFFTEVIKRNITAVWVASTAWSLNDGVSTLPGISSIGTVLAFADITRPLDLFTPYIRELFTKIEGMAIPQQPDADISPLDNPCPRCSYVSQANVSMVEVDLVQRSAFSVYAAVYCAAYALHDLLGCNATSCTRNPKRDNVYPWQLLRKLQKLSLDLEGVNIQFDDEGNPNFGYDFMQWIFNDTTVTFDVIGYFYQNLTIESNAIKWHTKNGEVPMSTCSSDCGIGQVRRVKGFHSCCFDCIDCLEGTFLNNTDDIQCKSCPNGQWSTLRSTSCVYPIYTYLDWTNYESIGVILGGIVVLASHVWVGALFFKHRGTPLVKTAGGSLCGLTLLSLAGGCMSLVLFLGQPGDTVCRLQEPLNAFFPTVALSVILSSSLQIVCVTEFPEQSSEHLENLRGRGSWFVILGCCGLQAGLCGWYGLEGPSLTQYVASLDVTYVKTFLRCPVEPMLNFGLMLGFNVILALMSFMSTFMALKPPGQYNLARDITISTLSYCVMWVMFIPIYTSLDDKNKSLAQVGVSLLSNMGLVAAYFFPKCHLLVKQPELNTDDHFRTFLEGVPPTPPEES
Description: Cells were seeded in 96-well plates coated with ε-poly-L-lysine at approximately 70,000 cells per well. […] Fluorescence changes were monitored at 2 s intervals, as described above. […] Three independent experiments were conducted for each receptor, and representative results are shown as the mean ± SEM (n = 3 replicates). Statistical tests were conducted using KyPlot version 6.0 (KyensLab Inc., Tokyo, Japan). Statistical significance was set at p < 0.05.

zfT1R2b/zfT1R3 = target: T2, zfT1R2b/zfT1R3 (Danio rerio, UniProt A0A8M1NDZ5+Q2MHK9); assay: Ca2+ mobilization dose-response assay, stable cells expressing zfT1R2b/zfT1R3 with G16gust44
T2 sequence (A0A8M1NDZ5 18-823): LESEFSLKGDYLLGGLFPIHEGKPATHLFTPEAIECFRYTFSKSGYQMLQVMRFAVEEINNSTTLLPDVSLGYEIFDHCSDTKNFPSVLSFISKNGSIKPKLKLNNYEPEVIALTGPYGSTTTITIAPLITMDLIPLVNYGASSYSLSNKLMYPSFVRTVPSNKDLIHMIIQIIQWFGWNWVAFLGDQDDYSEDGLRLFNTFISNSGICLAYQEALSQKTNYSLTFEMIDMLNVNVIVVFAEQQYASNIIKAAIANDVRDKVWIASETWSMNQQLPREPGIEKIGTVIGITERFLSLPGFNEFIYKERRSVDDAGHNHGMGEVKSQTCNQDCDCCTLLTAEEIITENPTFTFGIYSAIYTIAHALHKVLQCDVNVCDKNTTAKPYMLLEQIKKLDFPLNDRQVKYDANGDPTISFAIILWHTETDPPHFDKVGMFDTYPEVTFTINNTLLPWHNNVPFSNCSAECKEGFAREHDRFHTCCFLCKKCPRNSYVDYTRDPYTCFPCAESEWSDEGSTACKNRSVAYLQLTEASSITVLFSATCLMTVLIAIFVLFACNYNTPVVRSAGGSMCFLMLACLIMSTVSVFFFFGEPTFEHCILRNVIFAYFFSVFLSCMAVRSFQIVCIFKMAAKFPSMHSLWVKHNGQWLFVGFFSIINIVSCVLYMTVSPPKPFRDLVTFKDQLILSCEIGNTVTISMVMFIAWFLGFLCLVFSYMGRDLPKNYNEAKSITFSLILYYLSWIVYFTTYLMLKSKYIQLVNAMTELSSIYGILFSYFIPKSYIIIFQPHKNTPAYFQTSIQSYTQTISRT
T2 sequence (Q2MHK9 25-850): T1 sequence (Q2MHK9 25-850)
Description: (§1) The buffers with lower Cl^− were prepared by progressively replacing NaCl, KCl, CaCl2 and MgCl2 in the buffer with gluconate equivalents[20]. The pH was adjusted to 7.4 with NaOH. Ligands were diluted with the assay buffers at the desired concentrations.
(§2) Measurements of the responses of the cells by cell-based assay based on the intracellular Ca^2+ mobilization were carried out as described previously with some modifications[20],[34],[46],[47]. […] The cells were seeded in 96-well plates (clear-bottomed CellBIND surface plate, Corning, Glendale, AZ, USA) coated with ε-poly-L-lysine (Cosmo Bio, Tokyo, Japan) at approximately 70,000 cells per well. After 20 h, the medium was removed and replaced with high Cl^− buffer. After 3 h 30 min incubation at 27 °C, cells were loaded with 5 µM calcium-indicator dye Fluo-8 AM (AAT Bioquest, Sunnyvale, CA, USA) diluted in high Cl^− buffer. After incubation for 30 min at 27 °C, the cells were washed with buffers containing appropriate concentrations of Cl^−. The cellular assay was initiated after 3–5 min of resting and was completed within 5 min. The measurements were made using FlexStation 3 (Molecular Devices, Sunnyvale, CA, USA) at 27 °C. Fluorescence changes (i.e., excitation at 485 nm and emission at 525 nm with a cutoff at 515 nm) were monitored at 2 s intervals. A 100-µL aliquot of assay buffer supplemented with 2 × ligands was added at 20 s, and scanning was continued for an additional 40 s. The response of each well was determined as ∆RFU (delta relative fluorescent units), which was calculated as (maximum fluorescent value)—(minimum fluorescent value). […] Such normalized data from more than three independent experiments are reported as the mean ± standard error of the mean (SEM). Dose‒response fitting curves were calculated by Prism 9 (GraphPad Software, San Diego, CA) using nonlinear regression (log(agonist) vs. response—variable slope), based on the integrated data from the several independent experiments.

zfT1R2a/zfT1R3 [2] = target: T1, zfT1R2a/zfT1R3; assay: Ca2+ mobilization dose-response assay, stable cells expressing zfT1R2a/zfT1R3 with G16gust44
Description: as §1, §2

[3] = EC50, [Cl-]o=10 mM, unit inferred

| SMILES | response to fixed concentration of L-Pro on coapplication (zfT1R2a/zfT1R3 [1]) | cellular response to the salt alone (zfT1R2a/zfT1R3 [1]; without agonist) | [Cl-]o range in which a decrease in sensitivity was observed (zfT1R2b/zfT1R3; agonist L-Ala, buffers with 10-141.4 mM Cl-) [mM] | [Cl-]o at which sensitivity is clearly reduced (zfT1R2a/zfT1R3 [2]; agonist L-Pro, buffers with 10-141.4 mM Cl-) | EC50 in 10 mM Cl- buffer relative to high Cl- buffer (zfT1R2b/zfT1R3; 10 mM vs 141.4 mM Cl- buffer) | EC50 (zfT1R2b/zfT1R3; [3]) [µM] | EC50 in 10 mM Cl- buffer relative to high Cl- buffer (zfT1R2a/zfT1R3 [2]; 10 mM vs 141.4 mM Cl- buffer) | EC50 (zfT1R2a/zfT1R3 [2]; [3]) [µM] |
| --- | --- | --- | --- | --- | --- | --- | --- | --- |
| [Cl-].[Na+] [NaCl] | enhanced | did not elicit | 40 to 141.4 | below 80 mM | – | – | – | – |
| O=C([O-])[C@H](O)[C@@H](O)[C@H](O)[C@H](O)CO.[Na+] [Na-gluconate, sodium gluconate] | did not enhance | – | – | – | – | – | – | – |
| C[C@H](N)C(=O)O [L-Ala, L-alanine] | – | – | – | – | approximately half | 1290 | not influenced | 132 |

Reference: PMC10539361, “Allosteric modulation of the fish taste receptor type 1 (T1R) family by the extracellular chloride ion” (Scientific Reports, 2023)
